The IC50 is the concentration needed to halve the response being measured.

This note sets out measurements from patent publication US9969742B2, “Imidazotriazinone compounds” (Ironwood Pharmaceuticals, Inc., priority 2012, dated 2018).

T1 sequence (O76083 1-533 isoform O76083-2): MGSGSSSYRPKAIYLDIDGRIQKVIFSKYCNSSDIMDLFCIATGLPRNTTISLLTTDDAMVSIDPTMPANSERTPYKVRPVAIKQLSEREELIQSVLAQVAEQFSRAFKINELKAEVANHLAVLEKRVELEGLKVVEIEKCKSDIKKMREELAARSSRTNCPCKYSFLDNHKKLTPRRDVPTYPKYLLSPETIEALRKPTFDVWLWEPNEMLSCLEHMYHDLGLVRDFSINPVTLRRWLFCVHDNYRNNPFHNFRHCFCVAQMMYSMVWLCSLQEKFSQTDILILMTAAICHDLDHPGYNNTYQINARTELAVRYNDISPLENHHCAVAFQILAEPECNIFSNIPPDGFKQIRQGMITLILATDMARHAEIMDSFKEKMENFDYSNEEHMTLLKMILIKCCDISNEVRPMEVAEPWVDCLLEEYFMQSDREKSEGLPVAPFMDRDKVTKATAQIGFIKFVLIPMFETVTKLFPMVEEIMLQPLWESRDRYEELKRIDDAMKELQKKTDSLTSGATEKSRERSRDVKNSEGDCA

One experiment concerns the target T1, PDE9A2 (Homo sapiens, UniProt O76083).
T1 construct: purchased Reaction Biology Corporation, Malvern, Pa
As to the kind of experiment: Phosphodiesterase enzyme screening assay, PDE9A2. Format: biochemical. The note with it: Table 1; 10 concentrations; 4.0 μM cGMP substrate; 1 hour at R.T.; read-out: Band (PDE9A2 IC50). The source says: Compounds of the invention were screened against PDE1A, PDE1B, PDE2A, PDE3A, PDE3B, PDE4A1A, PDE4B1, PDE4D3, PDE5A1, PDE6C, PDE7A, PDE8A1, PDE9A2, PDE10A2 AND PDE11A isoforms of the phosphodiesterase enzyme to determine activity and overall selectivity through comparative analysis. […] Where 8-methoxy-IBMX and Zaprinast were used as reference inhibitors.
The phosphodiesterase enzyme isoforms were obtained from a commercial retailer (Reaction Biology Corporation, Malvern, Pa.) for use in the instant screening assay.
The analysis was completed using the Caliper LabChip 3000 and a 12-sipper LabChip. LabChip assays are separations-based, meaning that the product and substrate are electrophoretically separated, thereby minimizing interferences and yielding the highest data quality available on any screening platform. […] High Z′ values, few false positives, few false negatives and analytical quality reproducibility are the reasons cited for the increasing reliance on the LabChip assays.
The off-chip incubation mobility-shift phosphodiesterase assay uses a microfluidic chip to measure the conversion of a fluorescent cyclic AMP substrate to a 5′-AMP product, or a cyclic GMP substrate to a 5′-GMP product. The reaction mixture, from a microtiter plate well, is introduced through a capillary sipper onto the chip, where the fluorescent substrate and product are separated by electrophoresis and detected via laser-induced fluorescence. […] The precision of microfluidics allows researchers to detect subtle interactions between drug candidates and therapeutic targets.
Reactions were carried out in 100 mM HEPES (pH 7.5), 5 mM MgCl2, 1 mM DTT, 0.003% Brij, 4.0 μM cGMP substrate. The reaction was started by addition of cGMP or cAMP and incubated for 1 hour at R.T. The reaction was terminated by the addition of stop buffer containing 100 mM HEPES (pH 7.5), 15 mM EDTA, 0.015% Brij-35, 5% DMSO. Cyclic AMP/GMP substrate and 5′-AMP/5′-GMP product were separated by charge using electrophoretic mobility shift. Product formed was compared to control wells to determine inhibition or enhancement of enzyme activity.
Data points were averages of quadruplicate wells and error bars represented the SEM for each point.
For the molecule `CC1CN(S(=O)(=O)c2ccccc2)CC1c1nn2c(C3CCOCC3)ncc2c(=O)[nH]1` (single isomer, unassigned; (+)) [(+)-2-((3,4-trans)-4-methyl-1-(phenylsulfonyl)pyrrolidin-3-yl)-7-(tetrahydro-2H-pyran-4-yl)imidazo[5,1-f][1,2,4]triazin-4(3H)-one], the half-maximal inhibitory concentration (IC50) is less than 1000 nM.
Consider `CC1CN(S(=O)(=O)c2cccnc2)CC1c1nn2c(C3CCOCC3)ncc2c(=O)[nH]1` (single isomer, unassigned; (+)) [(+)-2-((3,4-trans)-4-methyl-1-(pyridin-3-ylsulfonyl)pyrrolidin-3-yl)-7-(tetrahydro-2H-pyran-4-yl)imidazo[5,1-f][1,2,4]triazin-4(3H)-one], for which the half-maximal inhibitory concentration (IC50) is less than 1000 nM.
For the molecule `CC1CN(Cc2ncccn2)CC1c1nn2c(C3CCOC3)ncc2c(=O)[nH]1` (single isomer, unassigned; (+)) [(+)-2-((3,4-trans)-4-methyl-1-(pyrimidin-2-ylmethyl)pyrrolidin-3-yl)-7-(tetrahydrofuran-3-yl)imidazo[5,1-f][1,2,4]triazin-4(3H)-one], the 50% inhibitory concentration (IC50) is less than 1000 nM.
`CC1CN(C(=O)c2ncccn2)CC1c1nn2c(C3CCOCC3)ncc2c(=O)[nH]1` (single isomer, unassigned; (+)) [(+)-2-((3,4-trans)-4-methyl-1-(pyrimidine-2-carbonyl)pyrrolidin-3-yl)-7-(tetrahydro-2H-pyran-4-yl)imidazo[5,1-f][1,2,4]triazin-4(3H)-one]: the IC50 is 1000 to 10000 nM.
`CC1CN(Cc2ncc3ccccc3n2)CC1c1nn2c(C3CCOCC3)ncc2c(=O)[nH]1` (single isomer, unassigned; (+)) [(+)-2-((3,4-trans)-4-methyl-1-(quinazolin-2-ylmethyl)pyrrolidin-3-yl)-7-(tetrahydro-2H-pyran-4-yl)imidazo[5,1-f][1,2,4]triazin-4(3H)-one]: the half-inhibitory concentration (IC50) is less than 1000 nM.
Same read-out and setting: in the case of `CC1CN(Cc2ccc3ccccc3n2)CC1c1nn2c(C3CCOCC3)ncc2c(=O)[nH]1` (single isomer, unassigned; (+)) [(+)-2-((3,4-trans)-4-methyl-1-(quinolin-2-ylmethyl)pyrrolidin-3-yl)-7-(tetrahydro-2H-pyran-4-yl)imidazo[5,1-f][1,2,4]triazin-4(3H)-one] it was less than 1000 nM; in that of `CC1CN(S(=O)(=O)c2ccccc2C#N)CC1c1nn2c(C3CCOCC3)ncc2c(=O)[nH]1` (single isomer, unassigned; (+)) [(+)-2-(((3,4-trans)-3-methyl-4-(4-oxo-7-(tetrahydro-2H-pyran-4-yl)-3,4-dihydroimidazo[5,1-f][1,2,4]triazin-2-yl)pyrrolidin-1-yl)sulfonyl)benzonitrile], 1000 to 10000 nM; in that of `CC1CN(Cc2ccc(C#N)cc2)CC1c1nn2c(C3CCOCC3)ncc2c(=O)[nH]1` (single isomer, unassigned; (+)) [(+)-4-(((3,4-trans)-3-methyl-4-(4-oxo-7-(tetrahydro-2H-pyran-4-yl)-3,4-dihydroimidazo[5,1-f][1,2,4]triazin-2-yl)pyrrolidin-1-yl)methyl)benzonitrile], less than 1000 nM.
`CC1CN(S(=O)(=O)c2ccc(C#N)cc2)CC1c1nn2c(C3CCOCC3)ncc2c(=O)[nH]1` (single isomer, unassigned; (+)) [(+)-4-(((3,4-trans)-3-methyl-4-(4-oxo-7-(tetrahydro-2H-pyran-4-yl)-3,4-dihydroimidazo[5,1-f][1,2,4]triazin-2-yl)pyrrolidin-1-yl)sulfonyl)benzonitrile]: the concentration for half-maximal inhibition (IC50) is more than 10000 nM.
Regarding `Cc1ccc(F)cc1-c1ncc2c(=O)[nH]c(C3CN(Cc4ncccn4)CC3C)nn12` (single isomer, unassigned; (+)) [(+)-7-(5-fluoro-2-methylphenyl)-2-((3,4-trans)-4-methyl-1-(pyrimidin-2-ylmethyl)pyrrolidin-3-yl)imidazo[1,5-f][1,2,4]triazin-4(3H)-one], the IC50 was less than 1000 nM.
Same read-out and setting: the same measure for `CC1CN(Cc2ccccc2)CC1c1nn2c(C3CCN(C(=O)OC(C)(C)C)CC3)ncc2c(=O)[nH]1` (single isomer, unassigned; (+)) [(+)-tert-butyl 4-(2-((3,4-trans)-1-benzyl-4-methylpyrrolidin-3-yl)-4-oxo-3,4-dihydroimidazo[1,5-f][1,2,4]triazin-7-yl)piperidine-1-carboxylate]: 1000 to 10000 nM; for `CC1CN(C(C)c2ccccc2)CC1c1nn2c(C3CCOCC3)ncc2c(=O)[nH]1` (single isomer, unassigned; (-)): less than 1000 nM.

The same experiment, now with this note: Table 2; 10 concentrations; 4.0 μM cGMP substrate; 1 hour at R.T.; read-out: Band (PDE9A2 IC50).
As for `CC1CN(CC(F)(F)F)CC1c1nn2c(C3CCOCC3)ncc2c(=O)[nH]1` (single isomer, unassigned; (+)) [(+)-2-((3,4-trans)-4-methyl-1-(2,2,2-trifluoroethyl)pyrrolidin-3-yl)-7-(tetrahydro-2H-pyran-4-yl)imidazo[5,1-f][1,2,4]triazin-4(3H)-one], the IC50 was less than 1000 nM.
Same read-out and setting: the same measure for `CC1CN(C(=O)Cc2cncnc2)CC1c1nn2c(C3CCOCC3)ncc2c(=O)[nH]1` (single isomer, unassigned; (+)) [(+)-2-((3,4-trans)-4-methyl-1-(2-(pyrimidin-5-yl)acetyl)pyrrolidin-3-yl)-7-(tetrahydro-2H-pyran-4-yl)imidazo[5,1-f][1,2,4]triazin-4(3H)-one]: 1000 to 10000 nM; for `CSc1cnc(CN2CC(C)C(c3nn4c(C5CCOCC5)ncc4c(=O)[nH]3)C2)nc1` (single isomer, unassigned; (+)) [(+)-2-((3,4-trans)-4-methyl-1-((5-(methylthio)pyrimidin-2-yl)methyl)pyrrolidin-3-yl)-7-(tetrahydro-2H-pyran-4-yl)imidazo[5,1-f][1,2,4]triazin-4(3H)-one]: less than 1000 nM.
Same read-out and setting: the same measure for `CC1CN(Cc2ncc(C(F)(F)F)cn2)CC1c1nn2c(C3CCOCC3)ncc2c(=O)[nH]1` (single isomer, unassigned; (+)) [(+)-2-((3,4-trans)-4-methyl-1-((5-(trifluoromethyl)pyrimidin-2-yl)methyl)pyrrolidin-3-yl)-7-(tetrahydro-2H-pyran-4-yl)imidazo[5,1-f][1,2,4]triazin-4(3H)-one]: less than 1000 nM.

Still in this experiment, the particulars now being: read-out: Band (PDE9A2 IC50).
As to `CC1CN(CC2CCN(C)CC2)CC1c1nn2c(C3CCOCC3)ncc2c(=O)[nH]1` (single isomer, unassigned; (+)) [(+)-2-((3,4-trans)-4-methyl-1-((1-methylpiperidin-4-yl)methyl)pyrrolidin-3-yl)-7-(tetrahydro-2H-pyran-4-yl)imidazo[5,1-f][1,2,4]triazin-4(3H)-one], the IC50 lay within 1000 to 10000 nM.
With `CCC(CC)c1ncc2c(=O)[nH]c(C3CN(Cc4ncccn4)CC3C)nn12` (single isomer, unassigned; (+)) [(+)-2-((3,4-trans)-4-methyl-1-(pyrimidin-2-ylmethyl)pyrrolidin-3-yl)-7-(pentan-3-yl)imidazo[5,1-f][1,2,4]triazin-4(3H)-one], the IC50 is less than 1000 nM.
On the same count and under the same terms, in the case of `CC1CN(Cc2ncccn2)CC1c1nn2c(-c3ccccc3)ncc2c(=O)[nH]1` (single isomer, unassigned; (+)) [(+)-2-((3,4-trans)-4-methyl-1-(pyrimidin-2-ylmethyl)pyrrolidin-3-yl)-7-phenylimidazo[5,1-f][1,2,4]triazin-4(3H)-one] it was less than 1000 nM; in that of `CC1CN(Cc2cn3ccccc3n2)CC1c1nn2c(-c3cccc(F)c3)ncc2c(=O)[nH]1` (single isomer, unassigned; (+)) [(+)-7-(3-fluorophenyl)-2-((3,4-trans)-1-(imidazo[1,2-a]pyridin-2-ylmethyl)-4-methylpyrrolidin-3-yl)imidazo[5,1-f][1,2,4]triazin-4(3H)-one], less than 1000 nM.
Turning to `CC1CN(Cc2ncccn2)CC1c1nn2c(-c3cccc(F)c3)ncc2c(=O)[nH]1` (single isomer, unassigned; (+)) [(+)-7-(3-fluorophenyl)-2-((3,4-trans)-4-methyl-1-(pyrimidin-2-ylmethyl)pyrrolidin-3-yl)imidazo[5,1-f][1,2,4]triazin-4(3H)-one], the IC50 was less than 1000 nM.
The same measure, in the same setting: in the case of `CC1CN(Cc2ccccn2)CC1c1nn2c(-c3ccc(F)cc3)ncc2c(=O)[nH]1` (single isomer, unassigned; (+)) [(+)-7-(4-fluorophenyl)-2-((3,4-trans)-4-methyl-1-(pyridin-2-ylmethyl)pyrrolidin-3-yl)imidazo[5,1-f][1,2,4]triazin-4(3H)-one] it was 1000 to 10000 nM; in that of `CC1CN(Cc2cccnc2)CC1c1nn2c(-c3ccc(F)cc3)ncc2c(=O)[nH]1` (single isomer, unassigned; (+)) [(+)-7-(4-fluorophenyl)-2-((3,4-trans)-4-methyl-1-(pyridin-3-ylmethyl)pyrrolidin-3-yl)imidazo[5,1-f][1,2,4]triazin-4(3H)-one], less than 1000 nM.
